# ChEMBL document CHEMBL4725351, “Cyclic Derivative of Host-Defense Peptide IDR-1018 Improves Proteolytic Stability, Suppresses Inflammation, and Enhances In Vivo Activity” (J Med Chem, 2020)
# Activity calls are given as the source filed them. No cut-off for these calls is given here. Where a SMILES comes first, the peptide text is derived from it. Bridges are numbered along the chain shown (N, C = ends).
# How the values were obtained:
# Staphylococcus aureus [1] = assay: Antibacterial activity against methicillin-resistant Staphylococcus aureus SAP0017 measured after overnight incubation by microtitre plate based spectrophotometric method; format: functional
# Staphylococcus aureus [2] = assay: Antibacterial activity against methicillin-resistant Staphylococcus aureus USA300 LAC measured after overnight incubation by microtitre plate based spectrophotometric method; format: functional
# Pseudomonas aeruginosa [3] = assay: Antibacterial activity against Pseudomonas aeruginosa PA14 measured after overnight incubation by microtitre plate based spectrophotometric method; format: functional
# Pseudomonas aeruginosa [4] = assay: Antibacterial activity against Pseudomonas aeruginosa PAO1 measured after overnight incubation by microtitre plate based spectrophotometric method; format: functional
# Escherichia coli [5] = assay: Antibacterial activity against Escherichia coli ATTC 489 measured after overnight incubation by microtitre plate based spectrophotometric method; format: functional
# Acinetobacter baumannii [6] = assay: Antibacterial activity against Acinetobacter baumannii 5015 measured after overnight incubation by microtitre plate based spectrophotometric method; format: functional
# Acinetobacter baumannii [7] = assay: Antibacterial activity against Acinetobacter baumannii 17918 measured after overnight incubation by microtitre plate based spectrophotometric method; format: functional
# Klebsiella pneumoniae [8] = assay: Antibacterial activity against Klebsiella pneumoniae ATTC 13883 measured after overnight incubation by microtitre plate based spectrophotometric method; format: functional
# Staphylococcus aureus [9] = assay: Antibiofilm activity against methicillin-resistant Staphylococcus aureus SAP0017 incubated for 24 hrs under shaking condition by turbidometric method; format: functional
# Staphylococcus aureus [10] = assay: Antibiofilm activity against methicillin-resistant Staphylococcus aureus USA300 LAC incubated for 24 hrs under shaking condition by turbidometric method; format: functional
# Pseudomonas aeruginosa [11] = assay: Antibiofilm activity against Pseudomonas aeruginosa PA14 incubated for 24 hrs under shaking condition by turbidometric method; format: functional
# Pseudomonas aeruginosa [12] = assay: Antibiofilm activity against Pseudomonas aeruginosa PAO1 incubated for 24 hrs under shaking condition by turbidometric method; format: functional
# Escherichia coli [13] = assay: Antibiofilm activity against Escherichia coli ATTC 489 incubated for 24 hrs under shaking condition by turbidometric method; format: functional
# Acinetobacter baumannii [14] = assay: Antibiofilm activity against Acinetobacter baumannii 5015 incubated for 24 hrs under shaking condition by turbidometric method; format: functional
# Acinetobacter baumannii [15] = assay: Antibiofilm activity against Acinetobacter baumannii 17918 incubated for 24 hrs under shaking condition by turbidometric method; format: functional
# Klebsiella pneumoniae [16] = assay: Antibiofilm activity against Klebsiella pneumoniae ATTC 13883 incubated for 24 hrs under shaking condition by turbidometric method; format: functional
# Trypsin [17] = biological target: T1, Trypsin (Homo sapiens, UniProt P07477+P07478+P35030); assay: Stability of the compound in pH 8.2 ammonium bicarbonate buffer assessed as trypsin (unknown origin)-mediated drug degradation at 20 ug/ml measured up to 120 mins by MALDI-TOF analysis; format: ADME, protein assay; conditions: pH 8.2, 2 h, at 20 µg/mL
# Trypsin [18] = biological target: T1, Trypsin; assay: Stability of the compound in pH 8.2 ammonium bicarbonate buffer assessed as trypsin (unknown origin)-mediated drug degradation at 20 ug/ml measured up to 120 mins by RP-HPLC analysis; format: ADME, protein assay; conditions: pH 8.2, 2 h, at 20 µg/mL
# [19] = Aggregation property of the compound in water at 1 mg/ml by turbidimetric method; format: physicochemical; conditions: buffer
# [20] = Aggregation property of the compound in saline at 1 mg/ml by turbidimetric method; format: physicochemical; conditions: buffer
# [21] = Aggregation property of the compound in 5% dextrose at 1 mg/ml by turbidimetric method; format: physicochemical
# [22] = Aggregation property of the compound in RPMI medium with 1% FBS at 1 mg/ml by turbidimetric method; format: physicochemical
# [23] = Aggregation property of the compound in sodium citrate solution at 10 mM by turbidimetric method; format: physicochemical; conditions: 10000 µM
# [24] = Aggregation property of the compound in sodium phosphate solution at 10 mM by turbidimetric method; format: physicochemical; conditions: 10000 µM
# [25] = Aggregation property of the compound in sodium nitrate solution at 10 mM by turbidimetric method; format: physicochemical; conditions: 10000 µM
# [26] = Aggregation of the compound in human PBMC assessed as amorphous morphology at 50 ug/ml measured after 4 hrs by microscopic analysis; format: ADME, tissue-based; conditions: dose 50 µg/ml
# [27] = Cytotoxicity against human PBMC assessed as reduction in cell viability at 100 ug/ml measured after 24 hrs by LDH assay; format: tissue-based; conditions: dose 100 µg/ml
# PBMC [28] = assay: Immunomodulatory activity in human PBMC assessed as increase in MCP1 production at 25 ug/ml measured after overnight incubation by ELISA; format: functional, tissue-based; conditions: dose 25.0 µg/ml
# PBMC [29] = assay: Immunomodulatory activity in human PBMC assessed as change in TNFalpha production at 25 ug/ml measured after overnight incubation by ELISA; format: functional, tissue-based; conditions: dose 25.0 µg/ml
# PBMC [30] = assay: Immunomodulatory activity in human PBMC assessed as increase in IL-1RA production at 25 ug/ml measured after overnight incubation by ELISA; format: functional, tissue-based; conditions: dose 25.0 µg/ml
# PBMC [31] = assay: Immunomodulatory activity in human PBMC assessed as reduction in LPS-induced TNFalpha production at 25 ug/ml measured after overnight incubation by ELISA; format: functional, tissue-based; conditions: dose 25.0 µg/ml
# [32] = Immunomodulatory activity in human PBMC assessed as increase in LPS-induced MCP1 production at 25 ug/ml measured after overnight incubation by ELISA; format: functional; conditions: dose 25 µg/ml
# PBMC [33] = assay: Immunomodulatory activity in human PBMC assessed as reduction in LPS-induced IL1beta production at 25 ug/ml measured after overnight incubation by ELISA; format: functional, tissue-based; conditions: dose 25.0 µg/ml
# PBMC [34] = assay: Immunomodulatory activity in human PBMC assessed as increase in LPS-induced IL10 production at 25 ug/ml measured after overnight incubation by ELISA; format: functional; conditions: dose 25.0 µg/ml
# PBMC [35] = assay: Immunomodulatory activity in human PBMC assessed as increase in LPS-induced IL1RA production at 25 ug/ml measured after overnight incubation by ELISA; format: functional; conditions: dose 25.0 µg/ml
# [36] = Toxicity in CD1 mouse assessed as precipitation under the skin at 10 mg/kg, sc measured after 16 hrs; format: organism-based; conditions: in vivo
# Staphylococcus aureus [37] = assay: Antibacterial activity against Staphylococcus aureus USA300 LAC infected in CD1 mouse assessed as reduction in dermonecrosis at 7.5 mg/kg, sc administered at infection site measured after 3 days by caliper method relative to control; format: functional; conditions: time 3.0 day
# Staphylococcus aureus [38] = assay: Antibacterial activity against Staphylococcus aureus USA300 LAC infected in CD1 mouse assessed as reduction in bacterial load at 7.5 mg/kg, sc administered at infection site measured after 3 days by colony counting method relative to control; format: functional; conditions: time 3.0 day
smiles,measurement,setting,value
CC[C@H](C)[C@@H]1NC(=O)[C@H](CCCNC(=N)N)NC(=O)[C@H](C(C)C)NC(=O)[C@H](C)NC(=O)[C@H](C(C)C)NC(=O)[C@H]([C@@H](C)CC)NC(=O)[C@H](CC(C)C)NC(=O)[C@H](CCCNC(=N)N)NC(=O)[C@H](C(C)C)NC(=O)[C@@H](N)CSSC[C@@H](C(N)=O)NC(=O)[C@H](CCCNC(=N)N)NC(=O)[C@H](CCCNC(=N)N)NC(=O)[C@H](Cc2c[nH]c3ccccc23)NC1=O (H-CVRLIVAVRIWRRC-NH2; disulfide 1-14),MIC,Staphylococcus aureus [1],28.7 µM
same,MIC,Staphylococcus aureus [2],28.7 µM
same,MIC,Pseudomonas aeruginosa [3],57.4 µM
same,MIC,Pseudomonas aeruginosa [4],57.4 µM
same,MIC,Escherichia coli [5],28.7 µM
same,MIC,Acinetobacter baumannii [6],57.4 µM
same,MIC,Acinetobacter baumannii [7],57.4 µM
same,MIC,Klebsiella pneumoniae [8],28.7 µM
same,MBEC,Staphylococcus aureus [9],18.3 µM
same,MBEC,Staphylococcus aureus [10],18.3 µM
same,MBEC,Pseudomonas aeruginosa [11],57.4 µM
same,MBEC,Pseudomonas aeruginosa [12],57.4 µM
same,MBEC,Escherichia coli [13],36.7 µM
same,MBEC,Acinetobacter baumannii [14],57.4 µM
same,MBEC,Acinetobacter baumannii [15],57.4 µM
same,MBEC,Klebsiella pneumoniae [16],28.7 µM
same,Stabilty,Trypsin [17],Stable
same,Stabilty,Trypsin [18],Stable
same,Activity,[19],Not Active
same,Activity,[20],Not Active
same,Activity,[21],Not Active
same,Activity,[22],Active
same,Activity,[23],Active
same,Activity,[24],Active
same,Activity,[25],Active
same,Activity,[26],Not Active
same,Activity,[27],Toxic
same,Activity,PBMC [28],Active
same,Activity,PBMC [29],inactive
same,Activity,PBMC [30],Active
same,Activity,PBMC [31],Active
same,Activity,[32],35%
same,Activity,PBMC [33],Active
same,Activity,PBMC [34],Active
same,Activity,PBMC [35],Active
same,Activity,[36],Toxic
same,Activity,Staphylococcus aureus [37],inactive
same,Activity,Staphylococcus aureus [38],inactive
